Laboratory results from patent US11266668B2, “Dietary supplement for glycemia control and diabetes prevention” (WORLD PHARMACEUTICAL TECHNOLOGY, LLC., priority 2018, dated 2022).
Marks after values point to notes of the source that are not given here.

Assays:
[1] = clinical phase I dose-escalation trial; cited from earlier work
Sprague-Dawley (SD) rats = assay: sucrose loading test (postprandial blood glucose after sucrose gavage); assay type: in vivo, rat; details: male SD rats, sucrose 2.0 g/kg gavage, 5 mg/kg
Protocol: The inhibitory effect of Example Formula 1 and Example Formula 2 (see Table 1 and Table 2) on postprandial hyperglycemia after carbohydrate loading in Sprague-Dawley (SD) rats was assessed. All animal studies were performed according to the Act on Welfare and Management of Animals law—Act No. 105 of Oct. 1, 1973. Six week-old male SD rats were utilized and fed a solid diet for one week. Rats were housed five per cage in a room with a 12:12 hour light:dark cycle and an ambient temperature of 22-25° C. After 4 groups (n=5) were fasted for one day, 2.0 g/kg of sucrose were gavaged concurrently with Example Formula 1 (200 and 400 mg/kg) (e.g., provided at 200 or 400 mg total weight of Example Formula 1 per 1 Kg of the testing subject or patient) or 5 mg/kg Acarbose. The blood samples were collected from the tail after treatment and blood glucose concentrations were determined at 0, 0.5, 1, and 2 hours by utilizing glucose oxidase method. FIG. 1 and FIG. 2 show the effect of different dosage of Example Formula 1 or Example Formula 2 on sucrose loading test. After fasting for one day, 7-week-old, male SD rats were gavaged with sucrose solution (2.0 g/kg) with or without (the Control sample) Example Formula 1 or Example Formula 2. Acarbose was utilized as a positive control. Each point in the drawing represents mean±SD. (n=5). *p<0.05, **p<0.01 versus their corresponding controls at the same time points by unpaired Student's t-test. After fasting for one day, 7-week-old, male SD rats were gavaged with sucrose solution (2.0 g/kg) with or without the Comparative Example Formula 1. Acarbose was used as a positive control. Each point represents mean±SD. (n=5). *p<0.05, **p<0.01 versus their corresponding controls at the same time points by unpaired Student's t-test. Table 4 below lists the blood glucose level of rats under different dosage of Example Formula 1 and Comparative Example Formula 1 on sucrose loading test (unit: mM). The procedure is as described above. After fasting for one day, 7-week-old, male SD rats were gavaged with sucrose solution (2.0 g/kg) with or without Example Formula 1 or Comparative Example Formula 1. Acarbose was used as a positive control. Each point represents mean±SD. (n=5). *p<0.05, **p<0.01 versus their corresponding controls at the same time points by unpaired Student's t-test.

Compound | clinically tolerable dose [1] [mg/kg] | blood glucose level (Sprague-Dawley (SD) rats; time 0 hour) [mM] | blood glucose level (Sprague-Dawley (SD) rats; time 0.5 hour) | blood glucose level (Sprague-Dawley (SD) rats; time 1 hour) | blood glucose level (Sprague-Dawley (SD) rats; time 2 hour) [mM]
O=CC[C@@H](O)[C@H](O)[C@H](O)CO [2-deoxy-D-glucose] | 63 |  |  |  | 
C[C@H]1O[C@H](O[C@H]2[C@H](O)[C@@H](O)[C@@H](O[C@H]3[C@H](O)[C@@H](O)C(O)O[C@@H]3CO)O[C@@H]2CO)[C@H](O)[C@@H](O)[C@@H]1N[C@H]1C=C(CO)[C@@H](O)[C@H](O)[C@H]1O (some centres unmarked) [Acarbose] |  | 5.4 ± 0.2 | 6.5 ± 0.3** mM | 6.9 ± 0.4** mM | 6.5 ± 0.4
